“And” between values parts separate entries of the source, which are not always exact repeats. Equal values may be shown once.
Tests used:
[1] = system: rat gastric mucosal-derived cancer cells (RGK-KO) versus rat gastric mucosal-derived cells (RGM-GFP); assay: Cellular intake of ^15N_5-ALA by cancer cells and normal cells, quantitated by 4.43 MeV gamma rays from the ^15N resonance nuclear reaction; type: cell-based; details: 24 hours after the addition of ^15N_5-ALA; 1 mmol/L in culture medium; RGK-KO vs RGM-GFP
Experimental: Rat gastric mucosal-derived cells (RGM-GFP) were prepared as normal cells and rat gastric mucosal-derived cancer cells (RGK-KO) were prepared as cancer cells, and the difference in cellular intake of ^15N_5-ALA between the RGM-GFP cells and RGK-KO cells was confirmed as follows. The rat gastric mucosal-derived cells and rat gastric mucosal-derived cancer cells are both derived from the rat and are widely used in research on anticancer agents because they have the same gene sequence (refer to Non-Patent Documents 6 and 7).
The RGM-GFP cells and RGK-KO cells were cultured for 3 or 4 days on a culture solution adapted to each and were grown to 80% confluence; this was followed by the addition of ^15N_5-ALA and the amount of ^15N intake per cell with elapsed time was measured. […] The cells, which had grown with attachment to the bottom of the Petri dish, were detached from the Petri dish by the addition of trypsin, and the concentration of the liberated cells was measured.
The concentration was adjusted, and 10^5 cells/2 μL was dripped onto a crystalline silicon substrate and drying was carried out. […] The 4.43 MeV gamma radiation emitted by this resonance nuclear reaction with ^15N was measured using a Bi4Ge3O12 (BGO) detector. […]
The specific procedure for quantitating the ^15N_5-ALA intake by the RGM-GFP cells and RGK-KO cells was as follows. […]

RGK-KO cells = assay: Proton beam irradiation of RGK-KO cells cultured on ^15N_5-ALA-containing culture medium, surviving fraction by fluorescent protein image and DAPI staining; type: cell-based, rat; details: ^15N_5-ALA in medium 24 hours before irradiation, charge amount 4.0 nC, 1.3 MeV
Excerpt: The RGK-KO cells and RGM-GFP cells cultured on a culture medium containing ^15N_5-ALA and the RGK-KO cells and RGM-GFP cells cultured on a culture medium not containing ^15N_5-ALA were in each instance held sealed in a vacuum along with the culture medium and were irradiated with a proton beam at a prescribed ion charge amount. With regard to the proton beam energy, considering the attenuation of the proton beam energy by the Torelina film and the culture solution sealed in the vacuum, the sample was irradiated at 1.3 MeV to match the 1.21 MeV resonance energy.
The upper sections show images of RGM-GFP cells made to metabolize a fluorescent protein by genetic recombination; the lower sections each show photographs in which the dead cells are identified by the DAPI staining method, which stains the DNA in the nucleus of dead cells. […]
The photographs in FIG. 20 show the case of a proton beam irradiation amount of charge of 4.0 nC for both cells. Genes for the metabolism of fluorescent protein are also incorporated in the RGK-KO cells, and the cells present a red color when observed with a fluorescence microscope. […]

## [15NH2]CC(=O)CCC(=O)O [^15N_5-ALA, 5-aminolevulinic acid in which the nitrogen is nitrogen-15]
[1]
  intake of ^15N_5-ALA by cancer cells relative to the intake by the normal cells: at least 5 times
RGK-KO cells
  surviving fraction immediately after (within three hours) proton beam irradiation: 73.5% and 85.5%
